# From US5440016A, “Peptides of the formula (KFmoc) ZZZ and their uses” (priority 1993, dated 1995)
# Square brackets hold non-standard residues; d marks the D form. Peptide text beside a SMILES is read from it. * marks the point of attachment. Phe(4-NO2) = N[C@@H](Cc1ccc([N+](=O)[O-])cc1)C(=O)O; Met(O2) = CS(=O)(=O)CC[C@H](N)C(=O)O; Fmoc = O=C(OCC1c2ccccc2-c2ccccc21)*; Orn = NCCC[C@H](N)C(=O)O; Thz = O=C(O)[C@@H]1CSCN1; Abu = CC[C@H](N)C(=O)O; Aib = CC(C)(N)C(=O)O; GABA = NCCCC(=O)O; βAla = NCCC(=O)O
# Experiments:
# [1] = test system: Human red blood cells (RBCs); test: Hemolytic activity; type: cell-based
# Procedure: Each assay was carried out in 96-well culture tissue plates. Four wells per plate contain 125 μl of a non-peptide positive control (1% Triton in de-ionized water), and four wells per plate contain 125 μl of a control blank, phosphate buffered saline (PBS). The hemolytic peptide melittin was used as comparative control. The controls served to detect possible contamination and to calculate the percent hemolysis of each peptide. Human red blood cells (RBCs) were washed with PBS and centrifuged to separate them from the serum. The cells were then resuspended in PBS to a final suspension of 0.5% RBC. 125 μl of this suspension was added to the peptides and controls solution. The release of hemoglobin resulting from the cell lysis was determined by measuring the OD at 414 nm of 100 μl of the supernatant.
# [2] = molecular target: melittin (Apis mellifera, UniProt P01501); test: cell-based; conditions: read-out: IC50, inhibition of melittin (converted)
# melittin, sequence (P01501 44-69 limits assumed): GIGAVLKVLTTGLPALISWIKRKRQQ
Compound,IC50 [2],also measured
NCCCC[C@H](NC(=O)OCC1c2ccccc2-c2ccccc21)C(=O)N[C@@H](Cc1c[nH]c2ccccc12)C(=O)N[C@H](Cc1ccccc1)C(=O)N[C@@H](CCCN)C(N)=O [(KFmoc)Wf(Orn)-NH2] (Fmoc-KW[dF][Orn]-NH2),–,"HD50 (concentration necessary to lyse 50% of the cells) ([1]; Table 20, lower part): 64 μg/m"
NCCCC[C@H](NC(=O)OCC1c2ccccc2-c2ccccc21)C(=O)N[C@@H](Cc1c[nH]c2ccccc12)C(=O)N[C@H](Cc1ccccc1)C(=O)N1CSC[C@H]1C(N)=O [(KFmoc)Wf(Thiopro)-NH2] (Fmoc-KW[dF][Thz]-NH2),–,"HD50 (concentration necessary to lyse 50% of the cells) ([1]; Table 20, lower part): 45 μg/m"
CC[C@H](C)[C@H](NC(=O)[C@@H](Cc1ccccc1)NC(=O)[C@H](Cc1c[nH]c2ccccc12)NC(=O)[C@H](CCCCN)NC(=O)OCC1c2ccccc2-c2ccccc21)C(N)=O [(KFmoc)WfI-NH2] (Fmoc-KW[dF]I-NH2),–,HD50 (concentration necessary to lyse 50% of the cells) ([1]; Tables 18-21): 208 µg/mL
CC(C)C[C@H](NC(=O)[C@@H](Cc1ccccc1)NC(=O)[C@H](Cc1c[nH]c2ccccc12)NC(=O)[C@H](CCCCN)NC(=O)OCC1c2ccccc2-c2ccccc21)C(N)=O [(KFmoc)WfL-NH2] (Fmoc-KW[dF]L-NH2),–,HD50 (concentration necessary to lyse 50% of the cells) ([1]; Tables 18-21): 294 µg/mL
NCCCC[C@H](NC(=O)OCC1c2ccccc2-c2ccccc21)C(=O)N[C@@H](Cc1c[nH]c2ccccc12)C(=O)N[C@H](Cc1ccccc1)C(=O)N1CCC[C@H]1C(N)=O [(KFmoc)WfP-NH2] (Fmoc-KW[dF]P-NH2),–,HD50 (concentration necessary to lyse 50% of the cells) ([1]; Tables 18-21): 40 µg/mL
N=C(N)NCCC[C@H](NC(=O)[C@@H](Cc1ccccc1)NC(=O)[C@H](Cc1c[nH]c2ccccc12)NC(=O)[C@H](CCCCN)NC(=O)OCC1c2ccccc2-c2ccccc21)C(N)=O [(KFmoc)WfR-NH2] (Fmoc-KW[dF]R-NH2),–,HD50 (concentration necessary to lyse 50% of the cells) ([1]; Tables 18-21): 122 µg/mL
NCCCC[C@H](NC(=O)OCC1c2ccccc2-c2ccccc21)C(=O)N[C@@H](Cc1c[nH]c2ccccc12)C(=O)N[C@H](Cc1ccccc1)C(=O)N[C@@H](Cc1ccc(O)cc1)C(N)=O [(KFmoc)WfY-NH2] (Fmoc-KW[dF]Y-NH2),–,HD50 (concentration necessary to lyse 50% of the cells) ([1]; Tables 18-21): 42 µg/mL
NCCCC[C@H](NC(=O)OCC1c2ccccc2-c2ccccc21)C(=O)N[C@@H](Cc1c[nH]c2ccccc12)C(=O)N[C@H](Cc1ccccc1)C(=O)N[C@H](Cc1c[nH]c2ccccc12)C(N)=O [(KFmoc)Wfw-NH2] (Fmoc-KW[dF][dW]-NH2),–,HD50 (concentration necessary to lyse 50% of the cells) ([1]; Tables 18-21): 36 µg/mL
CC[C@@H](C)[C@@H](NC(=O)[C@@H](CS)NC(=O)[C@H](CCCCN)NC(=O)OCC1c2ccccc2-c2ccccc21)C(=O)NCCC(N)=O [(KFmoc)ci(Bala)-NH2] (Fmoc-K[dC][dI][βAla]-NH2),–,HD50 (concentration necessary to lyse 50% of the cells) ([1]; Tables 18-21): 37 µg/mL
CC[C@@H](C)[C@@H](NC(=O)[C@@H](CS)NC(=O)[C@H](CCCCN)NC(=O)OCC1c2ccccc2-c2ccccc21)C(=O)N[C@@H](CCS(C)(=O)=O)C(N)=O [(KFmoc)ci(MetO2)-NH2] (Fmoc-K[dC][dI][Met(O2)]-NH2),–,HD50 (concentration necessary to lyse 50% of the cells) ([1]; Tables 18-21): 40 µg/mL
CC[C@@H](C)[C@@H](NC(=O)[C@@H](CS)NC(=O)[C@H](CCCCN)NC(=O)OCC1c2ccccc2-c2ccccc21)C(=O)N[C@@H](Cc1ccc([N+](=O)[O-])cc1)C(N)=O [(KFmoc)ci(NO2 F)-NH2] (Fmoc-K[dC][dI][Phe(4-NO2)]-NH2),–,HD50 (concentration necessary to lyse 50% of the cells) ([1]; Tables 18-21): 363 µg/mL
CC[C@@H](C)[C@@H](NC(=O)[C@@H](CS)NC(=O)[C@H](CCCCN)NC(=O)OCC1c2ccccc2-c2ccccc21)C(=O)N[C@@H](CCCN)C(N)=O [(KFmoc)ci(Orn)-NH2] (Fmoc-K[dC][dI][Orn]-NH2),–,HD50 (concentration necessary to lyse 50% of the cells) ([1]; Tables 18-21): 77 µg/mL
CC[C@H](NC(=O)[C@H](NC(=O)[C@@H](CS)NC(=O)[C@H](CCCCN)NC(=O)OCC1c2ccccc2-c2ccccc21)[C@H](C)CC)C(N)=O [(KFmoc)ci(aABA)-NH2] (Fmoc-K[dC][dI][Abu]-NH2),–,HD50 (concentration necessary to lyse 50% of the cells) ([1]; Tables 18-21): 29 µg/mL
CC[C@@H](C)[C@@H](NC(=O)[C@@H](CS)NC(=O)[C@H](CCCCN)NC(=O)OCC1c2ccccc2-c2ccccc21)C(=O)NC(C)(C)C(N)=O [(KFmoc)ci(aAIB)-NH2] (Fmoc-K[dC][dI][Aib]-NH2),–,HD50 (concentration necessary to lyse 50% of the cells) ([1]; Tables 18-21): 28 µg/mL
CC[C@@H](C)[C@@H](NC(=O)[C@@H](CS)NC(=O)[C@H](CCCCN)NC(=O)OCC1c2ccccc2-c2ccccc21)C(=O)NCCCC(N)=O [(KFmoc)ci(gABA)-NH2] (Fmoc-K[dC][dI][GABA]-NH2),–,HD50 (concentration necessary to lyse 50% of the cells) ([1]; Tables 18-21): 54 µg/mL
CC[C@@H](C)[C@@H](NC(=O)[C@@H](CS)NC(=O)[C@H](CCCCN)NC(=O)OCC1c2ccccc2-c2ccccc21)C(=O)N[C@@H](C)C(N)=O [(KFmoc)ciA-NH2] (Fmoc-K[dC][dI]A-NH2),–,HD50 (concentration necessary to lyse 50% of the cells) ([1]; Tables 18-21): 68 µg/mL
CC[C@@H](C)[C@@H](NC(=O)[C@@H](CS)NC(=O)[C@H](CCCCN)NC(=O)OCC1c2ccccc2-c2ccccc21)C(=O)N[C@@H](CS)C(N)=O [(KFmoc)ciC-NH2] (Fmoc-K[dC][dI]C-NH2),–,HD50 (concentration necessary to lyse 50% of the cells) ([1]; Tables 18-21): 400 µg/mL
CC[C@@H](C)[C@@H](NC(=O)[C@@H](CS)NC(=O)[C@H](CCCCN)NC(=O)OCC1c2ccccc2-c2ccccc21)C(=O)N[C@@H](Cc1ccccc1)C(N)=O [(KFmoc)ciF-NH2] (Fmoc-K[dC][dI]F-NH2),–,HD50 (concentration necessary to lyse 50% of the cells) ([1]; Tables 18-21): 295 µg/mL
Ac-FDIWFE-NH2 [Ac-FDIWFE-NH2],185 µM,–
Ac-FDIWFK-NH2 [Ac-FDIWFK-NH2],128 µM,–
Ac-FDIYCE-NH2 [Ac-FDIYCE-NH2],229 µM,–

Compound,IC50 [2],also measured
Ac-FDIYFE-NH2 [Ac-FDIYFE-NH2],1050 µM,–
Ac-FIIWCE-NH2 [Ac-FIIWCE-NH2],4 µM,–
Ac-FIIWFE-NH2 [Ac-FIIWFE-NH2],6.03 µM,–
Ac-FIIWFK-NH2 [Ac-FIIWFK-NH2],1450 µM,–
Ac-FIIYCE-NH2 [Ac-FIIYCE-NH2],5.68 µM,–
Ac-FIIYFE-NH2 [Ac-FIIYFE-NH2],7.8 µM,–
Ac-FIIYFK-NH2 [Ac-FIIYFK-NH2],419 µM,–
Ac-FQIWCE-NH2 [Ac-FQIWCE-NH2],10.9 µM,–
Ac-FQIWFE-NH2 [Ac-FQIWFE-NH2],9.01 µM,–
Ac-FQIYCE-NH2 [Ac-FQIYCE-NH2],16.6 µM,–
Ac-FQIYFE-NH2 [Ac-FQIYFE-NH2],21.4 µM,–
Ac-IDIWCE-NH2 [Ac-IDIWCE-NH2],978 µM,–
Ac-IDIWCK-NH2 [Ac-IDIWCK-NH2],130 µM,–
Ac-IDIYCE-NH2 [Ac-IDIYCE-NH2],361 µM,–
Ac-IDIYFE-NH2 [Ac-IDIYFE-NH2],355 µM,–
Ac-IDIYFK-NH2 [Ac-IDIYFK-NH2],918 µM,–
Ac-IIIWCE-NH2 [Ac-IIIWCE-NH2],5.51 µM,–
Ac-IIIWFE-NH2 [Ac-IIIWFE-NH2],6.27 µM,–
Ac-IIIYCE-NH2 [Ac-IIIYCE-NH2],15.1 µM,–
Ac-IIIYFE-NH2 [Ac-IIIYFE-NH2],5.85 µM,–
Ac-IQIWCE-NH2 [Ac-IQIWCE-NH2],6.73 µM,–

Compound,IC50 [2],also measured
Ac-IQIWFE-NH2 [Ac-IQIWFE-NH2],24 µM,–
Ac-IQIYCE-NH2 [Ac-IQIYCE-NH2],5.93 µM,–
Ac-IQIYCK-NH2 [Ac-IQIYCK-NH2],1310 µM,–
Ac-IQIYFE-NH2 [Ac-IQIYFE-NH2],19.9 µM,–
Ac-IVIFFA-NH2 [Ac-IVIFFA-NH2],33.3 µM,–
Ac-IVIFFC-NH2 [Ac-IVIFFC-NH2],92.1 µM,–
Ac-IVIFFD-NH2 [Ac-IVIFFD-NH2],12.6 µM,–
Ac-IVIFFE-NH2 [Ac-IVIFFE-NH2],17.3 µM,–
Ac-IVIFFF-NH2 [Ac-IVIFFF-NH2],205 µM,–
Ac-IVIFFG-NH2 [Ac-IVIFFG-NH2],29.9 µM,–
Ac-IVIFFH-NH2 [Ac-IVIFFH-NH2],36.8 µM,–
Ac-IVIFFI-NH2 [Ac-IVIFFI-NH2],105 µM,–
Ac-IVIFFK-NH2 [Ac-IVIFFK-NH2],> 310 µM,–
Ac-IVIFFL-NH2 [Ac-IVIFFL-NH2],140 µM,–
Ac-IVIFFM-NH2 [Ac-IVIFFM-NH2],25.9 µM,–
Ac-IVIFFN-NH2 [Ac-IVIFFN-NH2],22.7 µM,–
Ac-IVIFFP-NH2 [Ac-IVIFFP-NH2],49 µM,–
Ac-IVIFFQ-NH2 [Ac-IVIFFQ-NH2],32.2 µM,–
Ac-IVIFFR-NH2 [Ac-IVIFFR-NH2],> 299 µM,–
Ac-IVIFFS-NH2 [Ac-IVIFFS-NH2],27.4 µM,–
Ac-IVIFFT-NH2 [Ac-IVIFFT-NH2],30.8 µM,–

Compound,IC50 [2],also measured
Ac-IVIFFV-NH2 [Ac-IVIFFV-NH2],38.6 µM,–
Ac-IVIFFW-NH2 [Ac-IVIFFW-NH2],18.5 µM,–
Ac-IVIFFY-NH2 [Ac-IVIFFY-NH2],24.9 µM,–
Ac-IVILLA-NH2 [Ac-IVILLA-NH2],22 µM,–
Ac-IVILLC-NH2 [Ac-IVILLC-NH2],> 350 µM,–
Ac-IVILLD-NH2 [Ac-IVILLD-NH2],24.8 µM,–
Ac-IVILLE-NH2 [Ac-IVILLE-NH2],10.8 µM,–
Ac-IVILLF-NH2 [Ac-IVILLF-NH2],27.7 µM,–
Ac-IVILLG-NH2 [Ac-IVILLG-NH2],25.5 µM,–
Ac-IVILLH-NH2 [Ac-IVILLH-NH2],> 334 µM,–
Ac-IVILLI-NH2 [Ac-IVILLI-NH2],35.9 µM,–
Ac-IVILLK-NH2 [Ac-IVILLK-NH2],> 338 µM,–
Ac-IVILLL-NH2 [Ac-IVILLL-NH2],123 µM,–
Ac-IVILLM-NH2 [Ac-IVILLM-NH2],27 µM,–
Ac-IVILLN-NH2 [Ac-IVILLN-NH2],17.9 µM,–
Ac-IVILLP-NH2 [Ac-IVILLP-NH2],36.7 µM,–
Ac-IVILLQ-NH2 [Ac-IVILLQ-NH2],12.2 µM,–
Ac-IVILLR-NH2 [Ac-IVILLR-NH2],> 326 µM,–
Ac-IVILLS-NH2 [Ac-IVILLS-NH2],21.5 µM,–
Ac-IVILLT-NH2 [Ac-IVILLT-NH2],25.3 µM,–
Ac-IVILLV-NH2 [Ac-IVILLV-NH2],98.6 µM,–
